Source: patent US20050169984A1, “Pharmaceutical hard capsule containing inorganic substance” (DAIICHI SUNTORY PHARMA CO., LTD., priority 2004, published 2005)

How the values were obtained:
[1] = Generation of Compound 2 on sealed non-contact storage of faropenem daloxate with hard gelatin capsule (HPLC peak area ratio); type: physicochemical
Text: (drifting moisture) for 7 days, and observed for the change. 1, generation quantity of Compound 2 has increased and hard gelatin capsule has insolubilized after 3 days of preservation. From the result, it is confirmed that insolubilization of hard gelatin capsule is caused by low molecular, gaseous aldehyde-like substance generated from degradation of faropenem daloxate.
FIG. 2 is showing the testing condition of observation for change while faropenem daloxate is kept with hard gelatin capsule without any contact with the capsule in sealed glass container at 60° C. (drifting moisture) for 7 days.

[2] = background statement; cited from earlier work

Generation quantity of Compound 2 (%) ([1]; 60° C./drifting humidity/3 days): 0.02%
Generation quantity of Compound 2 (%) ([1]; 60° C./drifting humidity/5 days): 0.04%
Generation quantity of Compound 2 (%) ([1]; 60° C./drifting humidity/7 days): 0.07%
Compound: Cc1oc(=O)oc1COC(=O)C1=C([C@H]2CCCO2)S[C@@H]2[C@@H]([C@@H](C)O)C(=O)N12 [faropenem daloxate, (5-methyl-2-oxo-1,3-dioxolene-4-yl)methyl (5R,6S)-6-[(R)-1-hydroxyethyl]-7-oxo-3-[(R)-2-tetrahydrofuryl]-4-thia-1-azabicyclo[3.2.0]hept-2-ene-2-carboxylate]
oral absorbability [2]: ≥ 70%
